Where a SMILES comes first, the peptide text is derived from it. Bridges are numbered along the chain shown (N, C = ends). [ ]: non-standard residue; d: D form. Hyp = O=C(O)[C@@H]1C[C@@H](O)CN1; Cit = NC(=O)NCCC[C@H](N)C(=O)O; Pen = CC(C)(S)[C@H](N)C(=O)O; dDab = NCC[C@@H](N)C(=O)O; Dab = NCC[C@H](N)C(=O)O
What was measured:
Type in all cases: cell-based
[1] = system: Escherichia coli MCR-1 Af 45; settings: MCR-1 Af 45
In short: (§1)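 MICs were determined by CLSI broth microdilution in cation-adjusted Mueller-Hinton II broth with about 5×10^5 CFU/mL inoculum. Peptides were tested in two-fold serial dilutions with 0.002% polysorbate 80 final. MIC in μg/mL is the lowest concentration with no visible growth after 18-20 h at 35 °C.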

[2] = system: Escherichia coli ATCC 25922; settings: ATCC 25922
In short: as §1

[3] = system: Klebsiella pneumoniae SSI3010; settings: SSI3010
In short: as §1

[4] = system: human red blood cells (hRBC); settings: red cells of human, 1 h, 200 μg/mL
In short: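 Percent hemolysis derived from OD540 of supernatants relative to full lysis by 2.5% Triton X-100 (PBS baseline). Washed fresh human erythrocytes (20% v/v) were exposed to 200 μg/mL peptide for 1 h at 37 °C with shaking.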

| Escherichia coli MCR-1 Af45 MIC [1] [µg/mL] | Escherichia coli ATCC 25922 MIC [2] [µg/mL] | Klebsiella pneumoniae SSI3010 MIC [3] [µg/mL] | SMILES | Hemolysis at 0.2 g/L [4] [%] |
| --- | --- | --- | --- | --- |
| 0.125 | 0.25 | 0.5 | CC[C@H](C)[C@H](NC(=O)[C@@H]1C[C@@H](O)CN1C(=O)[C@@H](N)C(C)C)C(=O)N[C@@H]1C(=O)N[C@@H](Cc2ccc(O)cc2)C(=O)N[C@@H](CO)C(=O)N[C@@H](CC(N)=O)C(=O)N[C@@H](CCCNC(=N)N)C(=O)N[C@@H](CCN)C(=O)N[C@@H]([C@@H](C)O)C(=O)N[C@H](CCN)C(=O)N[C@@H](CCCNC(N)=O)C(=O)N[C@@H](CCN)C(=O)N[C@@H](CCN)C(=O)N[C@H](C(=O)N[C@@H](Cc2ccc(O)cc2)C(=O)O)CSSC1(C)C [Example 40, Val-Hyp-Ile-Pen-Tyr-Ser-Asn-Arg-Dab-Thr-^DDab-Cit-Dab-Dab-Cys-Tyr] (H-V[Hyp]I[Pen]YSNR[Dab]T[dDab][Cit][Dab][Dab]CY-OH; disulfide 4-15) | <1 |
| 0.125 | 0.125 | 0.25 | CC[C@H](C)[C@H](NC(=O)[C@@H]1C[C@@H](O)CN1C(=O)[C@@H](N)C(C)C)C(=O)N[C@@H]1C(=O)N[C@@H](Cc2ccc(O)cc2)C(=O)N[C@@H](CO)C(=O)N[C@@H](CC(N)=O)C(=O)N[C@@H](CCCNC(=N)N)C(=O)N[C@@H](CCN)C(=O)N[C@@H]([C@@H](C)O)C(=O)N[C@H](CCN)C(=O)N[C@@H](Cc2ccc(O)cc2)C(=O)N[C@@H](CCN)C(=O)N[C@@H](CCN)C(=O)N[C@H](C(=O)N[C@@H](Cc2ccc(O)cc2)C(=O)O)CSSC1(C)C [Example 41, Val-Hyp-Ile-Pen-Tyr-Ser-Asn-Arg-Dab-Thr-^DDab-Tyr-Dab-Dab-Cys-Tyr] (H-V[Hyp]I[Pen]YSNR[Dab]T[dDab]Y[Dab][Dab]CY-OH; disulfide 4-15) | <1 |
| 0.125 | 0.125 | 0.25 | CC[C@H](C)[C@@H]1NC(=O)[C@@H](CCN)NC(=O)[C@H]([C@@H](C)O)NC(=O)[C@H](CCN)NC(=O)[C@H](CCCNC(=N)N)NC(=O)[C@H](CC(N)=O)NC(=O)[C@H](CO)NC(=O)[C@H](Cc2ccc(O)cc2)NC(=O)[C@@H](NC(=O)[C@@H](NC(=O)[C@@H]2C[C@@H](O)CN2C(=O)[C@@H](N)C(C)C)[C@@H](C)CC)C(C)(C)SSC[C@@H](C(=O)N[C@@H](Cc2ccc(O)cc2)C(=O)O)NC(=O)[C@H](CCN)NC(=O)[C@H](CCN)NC1=O [Example 42, Val-Hyp-Ile-Pen-Tyr-Ser-Asn-Arg-Dab-Thr-^DDab-Ile-Dab-Dab-Cys-Tyr] (H-V[Hyp]I[Pen]YSNR[Dab]T[dDab]I[Dab][Dab]CY-OH; disulfide 4-15) | <1 |
| 0.25 | 0.25 | 0.5 | CC[C@H](C)[C@H](NC(=O)[C@@H]1C[C@@H](O)CN1C(=O)[C@@H](N)C(C)C)C(=O)N[C@@H]1C(=O)N[C@@H](Cc2ccc(O)cc2)C(=O)N[C@@H](CO)C(=O)N[C@@H](CC(N)=O)C(=O)N[C@@H](CCCNC(=N)N)C(=O)N[C@@H](CCN)C(=O)N[C@@H]([C@@H](C)O)C(=O)N[C@H](CCN)C(=O)N[C@@H](CC(N)=O)C(=O)N[C@@H](CCN)C(=O)N[C@@H](CCN)C(=O)N[C@H](C(=O)N[C@@H](Cc2ccc(O)cc2)C(=O)O)CSSC1(C)C [Example 43, Val-Hyp-Ile-Pen-Tyr-Ser-Asn-Arg-Dab-Thr-^DDab-Asn-Dab-Dab-Cys-Tyr] (H-V[Hyp]I[Pen]YSNR[Dab]T[dDab]N[Dab][Dab]CY-OH; disulfide 4-15) | <1 |

— patent US20240336654A1, “ANTIMICROBIAL PEPTIDOMIMETICS” (SPEXIS AG, priority 2021, published 2024)
